Structures are written as SMILES. Read-outs that look alike come from different tables or passages of the source. Where a SMILES comes first, the peptide text is derived from it. [ ]: non-standard residue; d: D form. The star is where a group is joined. Dip = N[C@H](C(=O)O)C(c1ccccc1)c1ccccc1; Abu(4,4-F2) = N[C@@H](CC(F)F)C(=O)O; Cha = N[C@@H](CC1CCCCC1)C(=O)O; X1 = O=C(O)c1ccc(CCN*)cc1

The target of experiment [1] is T1, NS3 protease domain complexed to a modified form of the NS4A peptide (Pep4AK) (Hepatitis C virus genotype 1b, UniProt P26663).
T1 construct: NS3 protease domain (residues 1027–1206 of the HCV polyprotein)
As to the kind of experiment: HCV NS3 protease domain/NS4A cofactor peptide assay (Assay B). It is filed as biochemical.

In experiment [2] the target is T2, full length NS3 protein noncovalently complexed with the full-length NS4A cofactor protein (NS3/NS4A complex) (Hepatitis C virus genotype 1b, UniProt P26663).
T2 construct: full length NS3 protein spanning residues 1027–1657 of the HCV polyprotein
Put plainly: Full-length NS3-NS4A heterodimer protein assay (Assay A). It is filed as biochemical, hepatitis C virus (HCV). Here is the method: Full-Length NS3-NS4A Heterodimer Protein Assay (Assay A)
(Gallinari, P., Paolini, C., Brennan, D., Nardi, C., Steinkühler, C. and De Francesco, R. Modulation of hepatitis C virus NS3 protease and helicase activities through the interaction with NS4A. Biochemistry 38, 5620–5632, 1999)
In this assay the full length NS3 protein spanning residues 1027–1657 of the HCV polyprotein, noncovalently complexed with the full-length NS4A cofactor protein (residues 1658–1711) was used. Assays were performed in 60 μl of a buffer containing 50 mM Hepes pH 7.5, 0.15 M NaCl, 0.1% (v/v) Triton X-100, 15% (v/v) glycerol, 10 mM DTT, 2 nM NS3/NS4A complex. To this assay mix 10 μM (final concentration) of a peptide substrate corresponding to the NS5AB cleavage site and having the sequence of the NS5A-NS5B peptide, were added. Incubation times at 23° C. were adjusted to obtain <10% conversion. Reactions were stopped by the addition of 40 μl of 1% TFA. Cleavage was determined by HPLC using a Merck-Hitachi chromatograph equipped with an autosampler. 80 μl samples were injected on a Lichrospher C18 reversed phase cartridge column (4×74 mm, 5 μm, Merck) and fragments were separated using a 10–40% acetonitrile gradient at 5%/min using a flow rate of 2.5 ml/min. Peak detection was done by monitoring both the absorbance at 220 nm and tryptophan fluorescence (λex=280 nm, λem=350 nm). Cleavage products were quantitated by integration of chromatograms with respect to appropriate standards. Kinetic parameters were calculated from nonlinear least-squares fit of initial rates as a function of substrate concentration with the help of a Kaleidagraph software, assuming Michaelis-Menten kinetics.
Ki values of peptide inhibitors were calculated from substrate titration experiments performed in the presence of increasing amounts of inhibitor. Experimental data sets were simultaneously fitted to eg.1 using a multicurve fit macro with the help of a Sigmaplot software: V=(VmaxS)/(Km([…])+S); (eq.1) Alternatively, Ki values were derived from IC50 values, calculated using a four-parameter logistic function, according to eq.2: IC50=(1+S/Km)Ki (eq.2)

The mark [3] stands for this setting: NS3 protease domain/NS4A cofactor peptide assay, read-out: Assay B (IC50 class).
Setting [4] is: Table 1, NS3 protease domain/Pep4AK, 4AB peptide substrate, read-out: Assay B.
The mark [5] stands for this setting: Table 5, full-length NS3/NS4A, read-out: AssayA.

T1 sequence (P26663 1027-1206, other chains not shown): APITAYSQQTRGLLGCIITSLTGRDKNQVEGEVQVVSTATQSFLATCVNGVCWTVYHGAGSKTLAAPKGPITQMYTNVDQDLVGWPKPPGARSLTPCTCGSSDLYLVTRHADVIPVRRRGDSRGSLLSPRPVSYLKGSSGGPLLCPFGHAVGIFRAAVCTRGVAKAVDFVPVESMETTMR
T2 sequence (P26663 1027-1657): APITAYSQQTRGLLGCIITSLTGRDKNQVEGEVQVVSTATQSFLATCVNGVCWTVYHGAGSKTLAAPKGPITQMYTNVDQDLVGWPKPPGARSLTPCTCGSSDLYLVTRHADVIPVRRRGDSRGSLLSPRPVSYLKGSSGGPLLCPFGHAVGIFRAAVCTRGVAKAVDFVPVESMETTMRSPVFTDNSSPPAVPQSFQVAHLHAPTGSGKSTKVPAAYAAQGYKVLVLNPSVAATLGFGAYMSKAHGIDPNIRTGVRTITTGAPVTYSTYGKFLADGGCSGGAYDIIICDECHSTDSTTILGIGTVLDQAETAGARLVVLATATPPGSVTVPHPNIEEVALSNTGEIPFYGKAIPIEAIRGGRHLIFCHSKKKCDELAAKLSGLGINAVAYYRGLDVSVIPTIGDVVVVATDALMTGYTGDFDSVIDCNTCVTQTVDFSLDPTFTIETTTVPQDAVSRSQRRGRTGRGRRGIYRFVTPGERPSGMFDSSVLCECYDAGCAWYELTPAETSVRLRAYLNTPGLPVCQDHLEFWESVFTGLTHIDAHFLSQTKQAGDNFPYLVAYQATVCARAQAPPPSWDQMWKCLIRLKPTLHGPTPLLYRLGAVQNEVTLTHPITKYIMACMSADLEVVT
T2 sequence (P26663 1658-1711): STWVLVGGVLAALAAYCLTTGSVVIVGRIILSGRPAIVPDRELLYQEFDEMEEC

Turning to `CC(C)C[C@H](NC(=O)C1(Cc2ccsc2C(=O)O)Cc2ccccc2N1)C(=O)N[C@@H](CC(F)F)C(=O)NCCc1cccc(/C=C/C(=O)O)c1` (single isomer, unassigned) [Compound 706], the IC50 is less than 10 µM in experiment [1] (setting [3]) and less than 100 µM in experiment [2].

Regarding `CC(C)C[C@H](NC(=O)[C@H](CCC(=O)O)NS(=O)(=O)c1cccc2ccccc12)C(=O)N[C@@H](CS)C(=O)NCCc1ccccc1Cl` [Compound 252], the IC50 is less than 10 µM in experiment [1] (Assay B, Table 2, NS3 protease domain/Pep4AK) and less than 10 µM in experiment [2]. Regarding `COC(=O)c1ccc(CCNC(=O)[C@H](CS)NC(=O)[C@H](CC(C)C)NC(=O)[C@H](CCC(=O)O)NC(=O)OCC(C)C)c(Cl)c1` [Compound 177], the IC50 in experiment [1] (setting [4]) was less than 10 µM; in experiment [2], less than 100 µM. The like results for `CC(C)COC(=O)NC(CCC(=O)O)C(=O)NC(CC(C)C)C(=O)NC(CS)C(=O)NCCc1ccc(CC(=O)O)cc1` (centres unmarked) [Compound 154] were, in that order, less than 10 µM and less than 100 µM. Taken in the same sequence, the figures for `CC(C)CC(NC(=O)C(CCC(=O)O)NC(=O)OC(C)(C)C)C(=O)NC(CS)C(=O)NCCc1ccccc1Cl` (centres unmarked) [Compound 114] were less than 10 µM and less than 100 µM.

As to `CC(C)COC(=O)NC(CCC(=O)O)C(=O)NC(CC(C)C)C(=O)NC(CS)C(=O)NCCc1ccc(CCC(=O)O)cc1` (centres unmarked) [Compound 156], the IC50 in experiment [1] (setting [4]) was less than 10 µM; in experiment [2] it was less than 100 µM.

Regarding `CC(C)C[C@H](NC(=O)C1(Cc2ccc(C(=O)O)s2)CCc2ccccc2N1)C(=O)N[C@@H](CC(F)F)C(=O)NCCc1ccc(C(=O)O)cc1Cl` (single isomer, unassigned) [Compound 711b], the results for the IC50 in experiment [1] (setting [3]) and in experiment [2] were less than 10 µM and less than 100 µM, respectively.

As to `CC(C)C[C@H](NC(=O)C1(Cc2ccsc2C(=O)O)Cc2ccccc2N1)C(=O)N[C@@H](CC(F)F)C(=O)NCCc1ccc(C(=O)O)cc1Cl` (single isomer, unassigned) [Compound 705], the IC50 in experiment [1] (setting [3]) is less than 10 µM; in experiment [2] it was less than 100 µM.

For `CC(C)COC(=O)NC(CCC(=O)O)C(=O)NC(CC(C)C)C(=O)NC(CS)C(=O)NCCc1c(Cl)cccc1Cl` (centres unmarked) [Compound 164], the values for the IC50 in experiment [1] (setting [4]) and in experiment [2] were less than 10 µM and less than 100 µM, respectively.

For the compound `COc1ccc(Br)cc1CCNC(=O)C(CS)NC(=O)C(CC(C)C)NC(=O)C(CCC(=O)O)NC(=O)OCC(C)C` (centres unmarked) [Compound 173], the IC50 in experiment [1] (setting [4]) is less than 10 µM; in experiment [2] it was less than 100 µM. For the compound `CC(C)C[C@H](NC(=O)C1(Cc2cccc(C(=O)O)c2)CCc2ccccc2N1)C(=O)N[C@@H](CC(F)F)C(=O)NCCc1ccc(C(=O)O)cc1Cl` (single isomer, unassigned) [Compound 712b], the IC50 in experiment [1] (setting [3]) is less than 10 µM; in experiment [2], less than 100 µM. As for `CC(C)COC(=O)NC(CCC(=O)O)C(=O)NC(CC(C)C)C(=O)NC(CS)C(=O)NCCc1ccc(C(=O)O)cc1` (centres unmarked) [Compound 151], the IC50 was less than 10 µM in experiment [1] (setting [4]) and less than 100 µM in experiment [2]. Regarding `CC(=O)N[C@@H](CC(=O)O)C(=O)N[C@@H](CCC(=O)O)C(=O)N[C@H](C(=O)N[C@@H](CCC(=O)O)C(=O)N[C@@H](CC1CCCCC1)C(=O)N[C@@H](CC(F)F)C(=O)NCCc1ccc(C(=O)O)cc1)C(c1ccccc1)c1ccccc1` [Compound 321] (Ac-DE[Dip]E[Cha][Abu(4,4-F2)]-X1), the IC50 in experiment [1] (Assay B, Table 3, NS3 protease domain/Pep4AK) was less than 1 µM; in experiment [2] (Table 3, full-length NS3/NS4A, read-out: Assay A), less than 1 µM.

Consider `CC(C)COC(=O)NC(CCC(=O)O)C(=O)NC(CC(C)C)C(=O)NC(CC(F)F)C(=O)NCCc1ccc(C(=O)O)cc1Cl` (centres unmarked) [Compound 180], for which the IC50 is less than 1 µM in experiment [1] (Assay B, Table 1, NS3 protease domain/Pep4AK, 4AB peptide substrate) and less than 10 µM in experiment [2] (Table 1, full-length NS3/NS4A, NS5A-NS5B peptide substrate, read-out: Assay A).

Take `CC(C)COC(=O)NC(CCC(=O)O)C(=O)NC(CC(C)C)C(=O)NC(CS)C(=O)NCCc1cccc(C(=O)O)c1` (centres unmarked) [Compound 133]: the IC50 in experiment [1] (setting [4]) is less than 10 µM; in experiment [2] it was less than 100 µM. On to `COc1ccc2c(O[C@@H]3C[C@@H](C(=O)N[C@@H](CC(F)F)C(=O)NCCc4c(F)cc(C(=O)O)cc4F)N(C(=O)[C@@H](NC(=O)OC(C)(C)C)C(C)(C)C)C3)cc(-c3ccccc3)nc2c1` [Compound 576], for which the IC50 in experiment [2] (setting [5]) was less than 1 µM.

As to `CC(C)C[C@H](NC(=O)C1(Cc2ccsc2C(=O)O)Cc2ccccc2N1)C(=O)N[C@@H](CC(F)F)C(=O)NCCc1c(F)cc(C(=O)O)cc1F` (single isomer, unassigned) [Compound 708b], the IC50 in experiment [1] (setting [3]) is less than 10 µM; in experiment [2], less than 100 µM. In the case of `CC(C)C[C@H](NC(=O)C1(Cc2ccsc2C(=O)O)Cc2ccccc2N1)C(=O)N[C@@H](CC(F)F)C(=O)NCCc1cc2ccccc2[nH]1` (single isomer, unassigned) [Compound 707b], the IC50 in experiment [2] (full-length NS3-NS4A heterodimer protein assay, read-out: Assay A (IC50 class)) was less than 100 µM.

`CC(C)CC(NC(=O)C(CCC(=O)O)NC(=O)OC(C)(C)C)C(=O)NC(CC(F)F)C(=O)NCCc1ccccc1Cl` (centres unmarked) [Compound 115]: the figures for the IC50 in experiment [1] (setting [4]) and in experiment [2] were less than 10 µM and less than 100 µM, respectively. Consider `CC(C)COC(=O)N[C@H](C(=O)N1C[C@H](c2ccccc2)C[C@H]1C(=O)N[C@@H](CC(F)F)C(=O)NCCc1cc(OC(C(=O)O)c2cccc(Cl)c2)ccc1Cl)C(C)C` (mixture of isomers) [Compound 571], for which, in experiment [2] (setting [5]), the IC50 was less than 10 µM. On to `CC(C)COC(=O)N[C@@H](CCC(=O)O)C(=O)N[C@@H](CC(C)C)C(=O)N[C@@H](CS)C(=O)NCCc1ccc(C(=O)O)cc1Cl` [Compound 178], for which the values for the IC50 in experiment [1] (setting [4]) and in experiment [2] were less than 1 µM and less than 10 µM, respectively. For `CC(C)COC(=O)N[C@H](C(=O)N1C[C@H](C2CCCCC2)C[C@H]1C(=O)N[C@@H](CC(F)F)C(=O)NCCc1ccc(C(=O)O)cc1Cl)C(C)C` [Compound 532], in experiment [2] (setting [5]), the IC50 is less than 1 µM.

`CC(C)COC(=O)N[C@H](C(=O)N1C[C@H](c2ccccc2)C[C@H]1C(=O)N[C@@H](CC(F)F)C(=O)NCCc1c(F)cc(C(=O)O)cc1F)C(C)(C)C` [Compound 537]: the IC50 in experiment [2] (setting [5]) was less than 10 µM. As to `CC(C)COC(=O)N[C@H](C(=O)N1C[C@H](c2ccccc2)C[C@H]1C(=O)N[C@@H](CC(F)F)C(=O)NCCc1c[nH]c2ccccc12)C(C)C` [Compound 574], in experiment [2] (setting [5]), the IC50 was less than 100 µM. For `CC(C)COC(=O)N[C@H](C(=O)N1C[C@H](c2ccccc2)C[C@H]1C(=O)N[C@@H](CC(F)F)C(=O)NCCc1ccc(C(=O)O)cc1)C(C)C` [Compound 517], the IC50 in experiment [2] (setting [5]) is less than 10 µM. As for `O=C(O)CC[C@H](NS(=O)(=O)c1cccc2ccccc12)C(=O)N1C[C@H](c2ccccc2)C[C@H]1C(=O)N[C@@H](CS)C(=O)NCCc1ccc(C(=O)O)cc1` [Compound 513], the IC50 in experiment [2] (setting [5]) is less than 100 µM. On the same count and under the same terms, in the case of `CC[C@H](C)[C@H](NC(=O)OCC(C)C)C(=O)N1C[C@H](c2ccccc2)C[C@H]1C(=O)N[C@@H](CC(F)F)C(=O)NCCc1c(F)cc(C(=O)O)cc1F` [Compound 534] it was less than 10 µM; in that of `CC(C)COC(=O)N[C@@H](CCC(=O)O)C(=O)N1C[C@H](c2ccccc2)C[C@H]1C(=O)N[C@@H](CS)C(=O)NCCc1ccc(C(=O)O)cc1Cl` [Compound 520], less than 10 µM. On to `CC(C)COC(=O)N[C@H](C(=O)N1C[C@H](c2ccccc2)C[C@H]1C(=O)N[C@@H](CC(F)F)C(=O)NCCc1c(F)cc(C(=O)OC(C)C)cc1F)C(C)C` [Compound 524], for which the IC50 in experiment [2] (setting [5]) was less than 100 µM.

The record behind these values is patent US7119073B2, “Peptides and their use as inhibitors of hepatitis C virus ns3 protease” (Istituto Di Ricerche Di Biologia Molecolare P. Angeletti SpA, priority 2001, dated 2006).
